# Assays:
# Kleb.pneum. A 809 = assay: agar serial dilution test; type: cell-based, Klebsiella pneumoniae; settings: Klebsiella pneumoniae; agar serial dilution, 24 hours, 37° C.; read-out: minimal inhibitory concentration (MIC)
# Past.multo. A 723 = assay: agar serial dilution test; type: cell-based, Pasteurella multocida; settings: Pasteurella multocida; agar serial dilution, 24 hours, 37° C.; read-out: minimal inhibitory concentration (MIC)
# Salm.dubl. P 43 = assay: agar serial dilution test; type: cell-based, Salmonella dublin; settings: Salmonella enterica; agar serial dilution, 24 hours, 37° C.; read-out: minimal inhibitory concentration (MIC)
# [1] = blood and urine contents after intramuscular administration in rabbits; type: in vivo, rabbits "Nieuw Zeelander"; settings: rabbit, im, intramuscular 50 mg/kg
# Description: (d) the blood and urine contents of the above-indicated compound G and of monosodium 7-[(3-carboxymethyl-1,2,4-oxadiazol-5-yl)acetamido]-3-acetoxymethyl-3-cephem-4-carboxylate (as prepared in example 35) were determined after intramuscular administration of these compounds in an aqueous solution in rabbits, as listed below:
# test animals: rabbits "Nieuw Zeelander"
# Each testgroup consisted of 3 rabbits.
# Vehiculum: Physiol. saline solution
# Bloodsamples were taken after 1/4--1/2--1--2--4 hours Urinesamples were taken after 1--3--6--24--27 hours (in practice only the secreted amounts after 6 and 24 hours were used).
# Testorganisms: Bacillus subtilis ATCC 6633 and Bacillus callidolactis E 16.
# The contents of the compounds in the samples were determined microbiologically.
# (Only microbiologically detected concentrations, i.e. anti-bacterially active concentrations only have been indicated and determined in relation to the original administered compound).
# [2] = tested on: Pseud.aerug. Wyeth A 1058; assay: agar serial dilution test; type: cell-based; settings: agar serial dilution, 24 hours, 37° C.; read-out: minimal inhibitory concentration (MIC)
# Salm.typh. R 172 = assay: agar serial dilution test; type: cell-based; settings: 24 h, read-out: minimal inhibitory concentration (MIC)
# Prot.mirab. H 3 = assay: agar serial dilution test; type: cell-based, Proteus mirabilis; settings: Proteus mirabilis; agar serial dilution, 24 hours, 37° C.; read-out: minimal inhibitory concentration (MIC)
# [3] = tested on: Klebsiella pneumoniae A 265; assay: protection test; type: in vivo; settings: i.p.
# Esch.coli U 20 = assay: agar serial dilution test; type: cell-based, Escherichia coli; settings: Escherichia coli, U20; agar serial dilution, 24 hours, 37° C.; read-out: minimal inhibitory concentration (MIC)
# Staph.aureus A 355 [4] = assay: agar serial dilution test; settings: Staphylococcus aureus, A355, 24 h, read-out: minimal inhibitory concentration (MIC), agar serial dilution, 24 hours, 37° C.; penicillinase-producing strain
# Staph.aureus A 2001 = assay: micro serial dilution test; type: cell-based, Staphylococcus aureus; settings: Staphylococcus aureus, A2001, 18 h, micro serial dilution (in brackets), about 18 hours, 30° C. or 37° C.; read-out: minimal inhibitory concentration (MIC)
# Haem.Suis A 2096 = assay: micro serial dilution test; type: cell-based; settings: micro serial dilution (in brackets), about 18 hours, 30° C. or 37° C.; read-out: minimal inhibitory concentration (MIC)
# Dipl.pneum. L 54 = assay: agar serial dilution test; type: cell-based, Diplococcus pneumoniae; settings: Streptococcus pneumoniae; agar serial dilution, 24 hours, 37° C.; read-out: minimal inhibitory concentration (MIC)
# Bruc. Suis A 2126 = assay: agar serial dilution test; type: cell-based; settings: Brucella suis, 24 h, read-out: minimal inhibitory concentration (MIC)
# Prot.rettg. A 821 = assay: agar serial dilution test; type: cell-based, Proteus rettgeri; settings: Providencia rettgeri, 24 h, agar serial dilution, 24 hours, 37° C.; read-out: minimal inhibitory concentration (MIC)
# Prot.morg. 2241 = assay: agar serial dilution test; type: cell-based; settings: 24 h, agar serial dilution, 24 hours, 37° C.; read-out: minimal inhibitory concentration (MIC)
# Staph.aureus A 2000 = assay: micro serial dilution test; type: cell-based, Staphylococcus aureus; settings: Staphylococcus aureus, A2000, 18 h, micro serial dilution (in brackets), about 18 hours, 30° C. or 37° C.; read-out: minimal inhibitory concentration (MIC)
# Prot.mirab. L 93 = assay: agar serial dilution test; type: cell-based, Proteus mirabilis; settings: Proteus mirabilis; agar serial dilution, 24 hours, 37° C.; read-out: minimal inhibitory concentration (MIC)
# Staph.aureus A 355 [5] = assay: micro serial dilution test; type: cell-based, Staphylococcus aureus; settings: Staphylococcus aureus, A355; micro serial dilution (in brackets), about 18 hours, 30° C. or 37° C.; penicillinase-producing strain; read-out: minimal inhibitory concentration (MIC)
# Proteus mirabilis A 1200 = assay: protection test; type: in vivo; settings: s.c.
# Actinob.equ. T 3 = assay: agar serial dilution test; type: cell-based; settings: 24 hours, 37° C., read-out: minimal inhibitory concentration (MIC)
# Strep.haem A 1088 = assay: agar serial dilution test; type: cell-based, Streptococcus haemolyticus; settings: Streptococcus, A1088, 24 hours, 37° C., read-out: minimal inhibitory concentration (MIC)
smiles,measurement,setting,value
"Cc1noc(CC(=O)N[C@@H]2C(=O)N3C(C(=O)O)=C(CSc4nnnn4C)CS[C@H]23)n1 [Compound G, sodium-7[(3-methyl-1,2,4-oxadiazol-5-yl)-acetamido] 3 [1-methyl-tetrazol-5-yl-mercaptomethyl] 3-cephem-4-carboxylate]",MIC,Kleb.pneum. A 809,0.5 mg/L
same,MIC,Past.multo. A 723,1 mg/L
same,MIC,Salm.dubl. P 43,1.5 mg/L
same,concentration at 0.5 h,"[1]; serum, after 1/2 hr, read-out: Serumlevel",137 µg/mL
same,concentration at 0.25 h,"[1]; serum, after 1/4 hr, read-out: Serumlevel",157 µg/mL
same,concentration at 1 h,"[1]; serum, after 1 hr, read-out: Serumlevel",49 µg/mL
same,concentration at 2 h,"[1]; serum, after 2 hr, read-out: Serumlevel",25 µg/mL
same,concentration at 4 h,"[1]; serum, after 4 hr, read-out: Serumlevel",6.7 µg/mL
same,dose excreted at 6 h,"[1]; urine, after 6 hr, read-out: Secretion of compound in urine in % of the administered dose",51.3%
same,dose excreted at 24 h,"[1]; urine, after 24 hr, read-out: Secretion of compound in urine in % of the administered dose",55.5%
same,MIC,[2],100 mg/L
same,MIC,Salm.typh. R 172,1.5 mg/L
same,MIC,Prot.mirab. H 3,25 mg/L
same,ED50,"[3]; Klebsiella pneumoniae, A265, ip, protection test",86 mg/kg
same,Potency ratio,[3]; reference Cefalotin,"1,09"
same,MIC,Esch.coli U 20,0.75 mg/L
same,MIC,Staph.aureus A 355 [4],1 mg/L
same,MIC,Staph.aureus A 2001,0.6 mg/L
same,MIC,Haem.Suis A 2096,0.23 mg/L
same,MIC,Dipl.pneum. L 54,0.5 mg/L
same,MIC,Bruc. Suis A 2126,1 mg/L
same,MIC,Prot.rettg. A 821,0.25 mg/L
same,MIC,Prot.morg. 2241,100 mg/L
same,MIC,Staph.aureus A 2000,0.6 mg/L
same,MIC,Prot.mirab. L 93,3 mg/L
same,MIC,Staph.aureus A 355 [5],0.9 mg/L
same,ED50,"Proteus mirabilis A 1200; Proteus mirabilis, A1200, sc, protection test, read-out: ED50",8.7 mg/kg
same,Potency ratio,Proteus mirabilis A 1200; reference Cefalotin,"1,4"
same,MIC,Actinob.equ. T 3,0.5 mg/L
same,MIC,Strep.haem A 1088,0.25 mg/L
